# Results reported in ChEMBL document CHEMBL3132819, “2-Hydroxy-substituted cinnamic acids and acetanilides are selective growth inhibitors of Mycobacterium tuberculosis” (Medchemcomm, 2014).
# Tested on: Mycobacterium tuberculosis variant bovis BCG
# Experiment: Antibacterial activity against Mycobacterium bovis BCG ATCC 35734 after 2 weeks by spot culture growth inhibition assay
# Assay type: functional
# Conditions: ATCC 35734, 336 h
row,Compound,MIC [µM]
1,O=C(O)/C=C/c1ccccc1 [CINNAMIC ACID],405
2,CC(=O)Nc1ccc(O)cc1 [ACETAMINOPHEN],> 661
3,COC(=O)/C=C/c1ccccc1OCC=C(C)C,> 406
4,NNC(=O)c1ccncc1 [ISONIAZID],0.73
5,CC(C)=CCC/C(C)=C/COc1ccc(/C=C/C(=O)O)cc1,134
6,O=C(O)/C=C/c1ccc(O)cc1 [COUMARIC ACID],366
7,CC(=O)Nc1cccc(O)c1 [METACETAMOL],> 661
8,CC(=O)Nc1ccccc1O,132
9,COC(=O)/C=C/c1ccc(O)cc1 [METHYL P-HYDROXYCINNAMATE],337
10,COC(=O)/C=C/c1cccc(O)c1,561
11,O=C(O)/C=C/c1cccc(O)c1,609
12,O=C(O)/C=C/c1ccccc1O [O-COUMARIC ACID],244
13,CC(C)=CCOc1ccc(/C=C/C(=O)O)cc1,86.1
14,COC(=O)/C=C/c1cccc(OCC=C(C)C)c1,244
15,CC(C)=CCOc1cccc(/C=C/C(=O)O)c1,258
16,CC(C)=CCOc1ccccc1/C=C/C(=O)O,258
17,COC(=O)/C=C/c1ccccc1O,112
18,COC(=O)/C=C/c1ccc(OCC=C(C)C)cc1,60.9
19,COC(=O)/C=C/c1ccc(OC/C=C(\C)CCC=C(C)C)cc1,254
20,O=C(O)/C=C/c1ccc2c(c1)OCO2,416
21,CO[C@H]1/C=C/O[C@@]2(C)Oc3c(C)c(O)c4c(O)c(c(/C=N/N5CCN(C)CC5)c(O)c4c3C2=O)NC(=O)/C(C)=C\C=C\[C@H](C)[C@H](O)[C@@H](C)[C@@H](O)[C@@H](C)[C@H](OC(C)=O)[C@@H]1C [RIFAMPIN],0.0607
